Laboratory results: patent US10358446B2, “Bruton's tyrosine kinase inhibitors” (Zibo Biopolar Changsheng Pharmaceutical Co. Ltd., priority 2015, dated 2019)

What follows are molecules tested against BTK (Homo sapiens (Human), UniProt Q06187) (assay: Btk kinase assay (HTRF)). Conditions: [ATP]=80 μM, BTK=3.4 nM; read-out: BTK Inhibition.
Type: biochemical
Procedure, shortened: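 BTK (3.4 nM) incubated 1 h with inhibitor, 80 μM ATP and 1 μM peptide substrate in 50 mM HEPES pH 7.0 with BSA and orthovanadate. Reaction stopped with EDTA plus Eu-antibody/XL665; HTRF 665/615 ratio read after 1 h, IC50 calculated relative to no-inhibitor and no-enzyme controls.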

Sequence of BTK (Q06187 whole entry, species assumed): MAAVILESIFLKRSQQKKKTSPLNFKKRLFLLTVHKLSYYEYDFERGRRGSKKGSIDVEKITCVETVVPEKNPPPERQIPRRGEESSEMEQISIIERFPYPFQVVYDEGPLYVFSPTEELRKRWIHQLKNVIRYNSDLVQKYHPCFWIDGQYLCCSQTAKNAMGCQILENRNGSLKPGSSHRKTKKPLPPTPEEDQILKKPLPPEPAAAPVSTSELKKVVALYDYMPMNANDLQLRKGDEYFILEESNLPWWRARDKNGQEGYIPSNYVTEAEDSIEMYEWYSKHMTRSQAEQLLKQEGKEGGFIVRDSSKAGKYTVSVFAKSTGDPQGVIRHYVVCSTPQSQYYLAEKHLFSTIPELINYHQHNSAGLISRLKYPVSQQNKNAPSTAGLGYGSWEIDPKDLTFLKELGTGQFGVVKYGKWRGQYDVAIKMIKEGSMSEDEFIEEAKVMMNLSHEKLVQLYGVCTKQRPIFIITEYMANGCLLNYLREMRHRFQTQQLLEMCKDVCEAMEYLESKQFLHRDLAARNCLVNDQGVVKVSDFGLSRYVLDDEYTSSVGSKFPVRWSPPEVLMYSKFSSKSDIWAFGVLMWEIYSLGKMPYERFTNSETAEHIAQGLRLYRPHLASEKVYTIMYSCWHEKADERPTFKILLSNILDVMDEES

Row | Compound | IC50 [nM]
1 | O=C(/C=C/c1ccccc1)N1CC[C@@H](n2c(=O)n(-c3ccc(Oc4ccccc4)cc3)c3cnccc32)C1 [Example 29, (R,E)-1-(1-cinnamoylpyrrolidin-3-yl)-3-(4-phenoxyphenyl)-1H-imidazo[4,5-c]pyridin-2(3H)-one] | ≥ 10000
2 | C=CC(=O)Nc1cccc(-n2c(=O)n(-c3ccc(OCc4ccccc4)c(F)c3)c3cnccc32)c1 [Example 234, N-(3-(3-(4-(benzyloxy)-3-fluorophenyl)-2-oxo-2,3-dihydro-1H-imidazo[4,5-c]pyridin-1-yl)phenyl)acrylamide] | 100 to 1000
3 | C=CC(=O)N1CC[C@@H](n2c(=O)n(-c3ccc(OCc4ccccc4)c(Cl)c3)c3cnccc32)C1 [Example 197, (R)-1-(1-acryloylpyrrolidin-3-yl)-3-(4-(benzyloxy)-3-chlorophenyl)-1H-imidazo[4,5-c]pyridin-2(3H)-one] | 100 to 1000
4 | C=CC(=O)Nc1cccc(-n2c(=O)n(-c3ccc(OCc4cc(F)ccc4F)cc3)c3cnccc32)c1 [Example 220, N-(3-(3-(4-((2,5-difluorobenzyl)oxy)phenyl)-2-oxo-2,3-dihydro-1H-imidazo[4,5-c]pyridin-1-yl)phenyl)acrylamide] | 100 to 1000
5 | C=CC(=O)Nc1cccc(-n2c(=O)n(-c3ccc(Oc4ccccc4)cc3)c3ncccc32)c1 [Example 119, N-(3-(2-oxo-3-(4-phenoxyphenyl)-2,3-dihydro-1H-imidazo[4,5-b]pyridin-1-yl)phenyl)acrylamide] | 1000 to 10000
6 | C=CC(=O)N1CC[C@@H](n2c(=O)n(-c3ccc(OCc4cc(F)ccc4F)c(Cl)c3)c3cnccc32)C1 [Example 206, (R)-1-(1-acryloylpyrrolidin-3-yl)-3-(3-chloro-4-((2,5-difluorobenzyl)oxy)phenyl)-1H-imidazo[4,5-c]pyridin-2(3H)-one] | 100 to 1000
7 | C=CC(=O)Nc1cccc(-n2c(=O)n(-c3ccc(OCc4ccc(C(F)(F)F)cc4)cc3)c3cnccc32)c1 [Example 242, N-(3-(2-oxo-3-(4-((4-(trifluoromethyl)benzyl)oxy)phenyl)-2,3-dihydro-1H-imidazo[4,5-c]pyridin-1-yl)phenyl)acrylamide] | 100 to 1000
8 | C=CC(=O)Nc1cccc(-n2c(=O)n(-c3ccc(Oc4ccc(Cl)c(F)c4)cc3)c3cnccc32)c1 [Example 160, N-(3-(3-(4-(4-chloro-3-fluorophenoxy)phenyl)-2-oxo-2,3-dihydro-1H-imidazo[4,5-c]pyridin-1-yl)phenyl)acrylamide] | 100 to 1000
9 | C=CC(=O)N1CC[C@@H](n2c(=O)n(-c3ccc(OCc4cc(F)ccc4F)cc3)c3cnccc32)C1 [Example 209, (R)-1-(1-acryloylpyrrolidin-3-yl)-3-(4-((2,5-difluorobenzyl)oxy)phenyl)-1H-imidazo[4,5-c]pyridin-2(3H)-one] | 100 to 1000
10 | C=CC(=O)Nc1cccc(-n2c(=O)n(-c3ccc(OCc4cccc(Cl)c4F)c(F)c3)c3cnccc32)c1 [Example 238, N-(3-(3-(4-((3-chloro-2-fluorobenzyl)oxy)-3-fluorophenyl)-2-oxo-2,3-dihydro-1H-imidazo[4,5-c]pyridin-1-yl)phenyl)acrylamide] | 100 to 1000
11 | C=CC(=O)N1CC[C@@H](n2c(=O)n(-c3ccc(Oc4ccc(Cl)c(Cl)c4)cc3)c3cnccc32)C1 [Example 37, (R)-1-(1-acryloylpyrrolidin-3-yl)-3-(4-(3,4-dichlorophenoxy)phenyl)-1H-imidazo[4,5-c]pyridin-2(3H)-one] | 100 to 1000
12 | C=CC(=O)N1CC[C@@H](n2c(=O)n(-c3ccc(OCc4cccc(C(F)(F)F)c4)cc3)c3cnccc32)C1 [Example 211, (R)-1-(1-acryloylpyrrolidin-3-yl)-3-(4-((3-(trifluoromethyl)benzyl)oxy)phenyl)-1H-imidazo[4,5-c]pyridin-2(3H)-one] | 100 to 1000
13 | C=CC(=O)Nc1cccc(-n2c(=O)n(-c3ccc(Oc4cccc(C)c4)c(C)c3)c3cnccc32)c1 [Example 47, N-(3-(3-(3-methyl-4-(m-tolyloxy)phenyl)-2-oxo-2,3-dihydro-1H-imidazo[4,5-c]pyridin-1-yl)phenyl) acrylamide] | 1000 to 10000

Continued, values first:

Row | IC50 [nM] | Compound
14 | 10 to 100 | C=CC(=O)Nc1cccc(-n2c(=O)n(-c3ccc(OCc4cccc(Cl)c4)cc3)c3cnccc32)c1 [Example 230, N-(3-(3-(4-((3-chlorobenzyl)oxy)phenyl)-2-oxo-2,3-dihydro-1H-imidazo[4,5-c]pyridin-1-yl)phenyl)acrylamide]
15 | 100 to 1000 | C=CC(=O)N1CC[C@@H](n2c(=O)n(-c3ccc(OCc4ccc(C(F)(F)F)cc4)cc3)c3cnccc32)C1 [Example 212, (R)-1-(1-acryloylpyrrolidin-3-yl)-3-(4-((4-(trifluoromethyl)benzyl)oxy)phenyl)-1H-imidazo[4,5-c]pyridin-2(3H)-one]
16 | 100 to 1000 | C=CC(=O)N1CCC(Cn2c(=O)n(-c3ccc(Oc4ccccc4)cc3)c3cnccc32)CC1 [Example 15, 1-((1-acryloylpiperidin-4-yl)methyl)-3-(4-phenoxyphenyl)-1H-imidazo[4,5-c]pyridin-2(3H)-one]
17 | ≤ 10 | C=CC(=O)Nc1cccc(-n2c(=O)n(-c3ccc(Oc4ccccc4)c(F)c3)c3cnccc32)c1 [Example 93, N-(3-(3-(3-fluoro-4-phenoxyphenyl)-2-oxo-2,3-dihydro-1H-imidazo[4,5-c]pyridin-1-yl)phenyl)acrylamide]
18 | ≤ 10 | C=CC(=O)N1CCC[C@@H](n2c(=O)n(-c3ccc(Oc4cccc(OC)c4F)cc3)c3cnccc32)C1 [Example 186, (R)-1-(1-acryloylpiperidin-3-yl)-3-(4-(2-fluoro-3-methoxyphenoxy)phenyl)-1H-imidazo[4,5-c]pyridin-2(3H)-one]
19 | 10 to 100 | C=CC(=O)N1CCC[C@@H](n2c(=O)n(-c3ccc(Oc4cccc(Cl)c4C)cc3)c3cnccc32)C1 [Example 134, (R)-1-(1-acryloylpiperidin-3-yl)-3-(4-(3-chloro-2-methylphenoxy)phenyl)-1H-imidazo[4,5-c]pyridin-2(3H)-one]
20 | 10 to 100 | C=CC(=O)N1CCC[C@@H](n2c(=O)n(-c3ccc(Oc4cccc(Cl)c4F)cc3)c3cnccc32)C1 [Example 59, (R)-1-(1-acryloylpiperidin-3-yl)-3-(4-(3-chloro-2-fluorophenoxy)phenyl)-1H-imidazo[4,5-c]pyridin-2(3H)-one]
21 | 10 to 100 | C=CC(=O)Nc1cccc(-n2c(=O)n(-c3ccc(OCc4cc(F)c(F)cc4F)cc3)c3cnccc32)c1 [Example 195, N-(3-(2-oxo-3-(4-((2,4,5-trifluorobenzyl)oxy)phenyl)-2,3-dihydro-1H-imidazo[4,5-c]pyridin-1-yl)phenyl)acrylamide]
22 | ≤ 10 | C=CC(=O)Nc1cccc(-n2c(=O)n(-c3ccc(Sc4ccccc4)cc3)c3cnccc32)c1 [Example 157, N-(3-(2-oxo-3-(4-(phenylthio)phenyl)-2,3-dihydro-1H-imidazo[4,5-c]pyridin-1-yl)phenyl)acrylamide]
23 | 10 to 100 | C=CC(=O)N1CC[C@@H](n2c(=O)n(-c3ccc(Oc4cccc(OC)c4Cl)cc3)c3cnccc32)C1 [Example 135, (R)-1-(1-acryloylpyrrolidin-3-yl)-3-(4-(2-chloro-3-methoxyphenoxy)phenyl)-1H-imidazo[4,5-c]pyridin-2(3H)-one]
24 | 10 to 100 | C=CC(=O)Nc1cccc(-n2c(=O)n(-c3cccc(Oc4ccccc4OC)c3)c3cnccc32)c1 [Example 89, N-(3-(3-(3-(2-methoxyphenoxy)phenyl)-2-oxo-2,3-dihydro-1H-imidazo[4,5-c]pyridin-1-yl)phenyl)acrylamide]
